Experimental data taken from patent US20230407243A1, “GENETIC PLATFORM TO INVESTIGATE THE FUNCTIONS OF BACTERIAL DRUG EFFLUX PUMPS” (priority 2022, published 2023).
In brackets after ≈: the same amount, converted by molar mass. Entries after “also recorded” stand apart in the source; their conditions may differ.

Columns and labels:
Format in all cases: cell-based, Escherichia coli
[1] = system: EKO-35 porinated strain expressing acrD; assay: Checkerboard synergy (FICI), porinated strain; conditions: for interaction of PAβN in combination with the labelled antibiotic (FICI): acrD expressed in the porinated strain
In short: (§1)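 Interaction of PAβN or NMP with antibiotics is scored as FICI = CA/MICA + CB/MICB, from MICs (no growth, OD600) in MHB II checkerboard microdilution following CLSI. Solvent controls accompany every plate.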

[2] = system: EKO-35 porinated strain expressing acrF (AcrEF); assay: Checkerboard synergy (FICI), porinated strain
In short: as §1

[3] = system: EKO-35-Pore strains with integrated AcrB, AcrEF, AcrD, MdtEF with pGDP2:emrE or empty pGDP-2; assay: Efflux pump interplay MIC profiling (pGDP2:emrE), porinated; conditions: for interplay of EmrE with tripartite efflux pumps on resistance: AcrB, AcrEF, AcrD, MdtEF combined with pEmrE; for Interplay effect / MIC / Fold Change from EKO-35: Pore +
Source text: This plasmid enables single-copy genomic integration of a selected gene through integration into the nonessential araC gene within the arabinose operon (Cox, G. et al., 2022). All E. coli genes were amplified from E. coli BW25113 genomic DNA, and mexCD was amplified from P. aeruginosa PAO1, using a high-fidelity polymerase, followed by ligation into pINT2. Successful clones were verified using PCR (Primers: pLac-Fwd/pINT-Rev, Table 4) and confirmed via Sanger sequencing at The Centre for Applied Genomics (TCAG) (The Hospital for Sick Children) and the AAC (University of Guelph). For the interplay studies, this process was repeated using the pGDP2 plasmid (Cox, G. et al., 2022).
To enable comparison between efflux production in different genetic backgrounds, each efflux pump-encoding gene was also integrated into the genome of the wild-type BW25113 strain, the single gene deletion mutant from the Keio Collection, and EKO-35. Strains of interest were propagated on LB agar at 37° C. Cell inoculum was prepared using the colony resuspension method and applied to a 96-well well plate (VWR) in technical duplicate, and the minimum inhibitory concentrations were determined according to Clinical & Laboratory Standards Institute (CLSI) protocols in MHB II (Patel J. B. et al, 2015). The plates were incubated for 18 h (Multitron Shaker, Infors HT) at 37° C. with aeration at 900 rpm. The plates were equilibrated to room temperature before the OD600 nm was measured using a BioTek Synergy H1 microplate reader. For interplay profiling, blank subtracted OD600 nm values >0.1 were considered to represent growth.
To investigate, the EKO-35-Pore strains were profiled using the same approach.

[4] = system: EKO-35 strains with integrated RND tripartite efflux pumps (AcrB, AcrEF, AcrD, and MdtEF) with pGDP2:emrE or empty pGDP-2; assay: Efflux pump interplay MIC profiling (pGDP2:emrE); conditions: for interplay of EmrE with tripartite efflux pumps on resistance: EKO-35, AcrB, AcrEF, AcrD, MdtEF combined with pEmrE; for Interplay effect / MIC / Fold Change from EKO-35: Pore −
[5] = EKO-35 acrD Pore, NMP + antibiotic
[6] = EKO-35 acrD Pore, PAβN + antibiotic
[7] = EKO-35 acrD Pore, antibiotic alone (PAβN checkerboard)
[8] = EKO-35 acrD Pore, antibiotic in combination with PAβN
[9] = strain EKO-35 acrD Pore, NMP + antibiotic
[10] = EKO-35 acrEF Pore, PAβN + antibiotic
[11] = strain EKO-35 acrEF Pore, NMP + antibiotic

With `Cc1onc(-c2ccccc2)c1C(=O)N[C@@H]1C(=O)N2[C@@H]1SC(C)(C)[C@@H]2C(=O)O` [oxacillin] the Effect [1, 5] was “Additive”, the FICI [1, 5] was 0.750 and the Effect [1, 6] was “Synergistic”. The FICI [1, 6] was 0.500, the “MICb Alone” value [1, 7] was 4 µg/mL and the “MICb Combined” value [1, 8] was 1 µg/mL. The “interaction of PAβN in combination with the labelled antibiotic (FICI)” value [1] was “still observed”, the Effect [1, 9] was “Additive (additive (FICI >0.5-1.0))” and the FICI [1, 9] was 0.750. The “MICb Alone” value ([1]; strain EKO-35 acrD Pore, antibiotic alone) was 2 µg/mL, the “MICb Combined” value ([1]; strain EKO-35 acrD Pore, antibiotic in combination with NMP) was 0.5 µg/mL and the FICI ([2]; EKO-35 acrEF Pore, NMP + antibiotic) was 1.000. For the same molecule, the Effect [2, 10] was “Synergistic”, the FICI [2, 10] was 0.500 and the “MICb Alone” value ([2]; EKO-35 acrEF Pore, antibiotic alone (PAβN checkerboard)) was 4 µg/mL. The “MICb Combined” value ([2]; EKO-35 acrEF Pore, antibiotic in combination with PAβN) was 1 µg/mL, the Effect [2, 11] was “— (indifferent (FICI >1.0))” and the FICI [2, 11] was 1.000. The “MICb Alone” value ([2]; strain EKO-35 acrEF Pore, antibiotic alone) was 2 µg/mL and the “MICb Combined” value ([2]; strain EKO-35 acrEF Pore, antibiotic in combination with NMP) was 1 µg/mL.

For `C[n+]1c2cc(N)ccc2cc2ccc(N)cc21.[Cl-]` [acriflavine], the “resistance conferred by AcrD alone or in combination with EmrE” value ([3]; EKO-35-Pore) was “did not increase resistance”, the “interplay of EmrE with tripartite efflux pumps on resistance” value ([3]; EKO-35-Pore) was “Interplay was maintained” and the “interplay of EmrE with AcrD on resistance” value ([3]; EKO-35-Pore, AcrD with EmrE) was “multiplicative effect was lost”. For the same molecule, the Interplay effect ([3]; acrB with pEmrE) was “Multiplicative”, the Interplay effect ([3]; acrEF with pEmrE) was “Multiplicative” and the Interplay effect ([3]; mdtEF with pEmrE) was “Multiplicative”. For the same molecule, the MIC ([3]; strain EKO-35) was 0.049 µg/mL, the “Fold Change from EKO-35” value ([3]; strain EKO-35 pEmrE) was 16 and the MIC ([3]; strain EKO-35 pEmrE) was 0.781 µg/mL. The “Fold Change from EKO-35” value ([3]; strain acrB pEmrE) was 256, the MIC ([3]; strain acrB pEmrE) was 12.5 µg/mL and the “Fold Change from EKO-35” value ([3]; strain acrB) was 16. For the same molecule, the MIC ([3]; strain acrB) was 0.781 µg/mL, the “Fold Change from EKO-35” value ([3]; strain acrD pEmrE) was 16 and the MIC ([3]; strain acrD pEmrE) was 0.781 µg/mL. The “Fold Change from EKO-35” value ([3]; strain acrD) was 2, the MIC ([3]; strain acrD) was 0.098 µg/mL and the “Fold Change from EKO-35” value ([3]; strain acrEF pEmrE) was 128. For the same molecule, the MIC ([3]; strain acrEF pEmrE) was 6.25 µg/mL, the “Fold Change from EKO-35” value ([3]; strain acrEF) was 16 and the MIC ([3]; strain acrEF) was 0.781 µg/mL. For the same molecule, the “Fold Change from EKO-35” value ([3]; strain mdtEF pEmrE) was 32, the MIC ([3]; strain mdtEF pEmrE) was 1.56 µg/mL and the “Fold Change from EKO-35” value ([3]; strain mdtEF) was 4. The MIC ([3]; strain mdtEF) was 0.195 µg/mL, the “interplay of EmrE with tripartite efflux pumps on resistance” value [4] was “multiplicative effects” and the Interplay effect ([4]; acrB with pEmrE) was “Multiplicative”. The Interplay effect ([4]; acrD with pEmrE) was “Multiplicative”, the Interplay effect ([4]; acrEF with pEmrE) was “Multiplicative” and the Interplay effect ([4]; mdtEF with pEmrE) was “Multiplicative”. The MIC ([4]; strain EKO-35) was 0.098 µg/mL, the “Fold Change from EKO-35” value ([4]; strain EKO-35 pEmrE) was 8 and the MIC ([4]; strain EKO-35 pEmrE) was 0.781 µg/mL. For the same molecule, the “Fold Change from EKO-35” value ([4]; strain acrB pEmrE) was 256, the MIC ([4]; strain acrB pEmrE) was 25 µg/mL and the “Fold Change from EKO-35” value ([4]; strain acrB) was 16. The MIC ([4]; strain acrB) was 1.56 µg/mL, the “Fold Change from EKO-35” value ([4]; strain acrD pEmrE) was 16 and the MIC ([4]; strain acrD pEmrE) was 1.56 µg/mL. For the same molecule, the “Fold Change from EKO-35” value ([4]; strain acrD) was 1, the MIC ([4]; strain acrD) was 0.098 µg/mL and the “Fold Change from EKO-35” value ([4]; strain acrEF pEmrE) was 128. For the same molecule, the MIC ([4]; strain acrEF pEmrE) was 12.5 µg/mL, the “Fold Change from EKO-35” value ([4]; strain acrEF) was 8 and the MIC ([4]; strain acrEF) was 0.781 µg/mL. The “Fold Change from EKO-35” value ([4]; strain mdtEF pEmrE) was 16, the MIC ([4]; strain mdtEF pEmrE) was 1.56 µg/mL and the “Fold Change from EKO-35” value ([4]; strain mdtEF) was 1. It also gave an MIC ([4]; strain mdtEF) of 0.098 µg/mL.

In the case of `CO[C@@H]1[C@@H](OC(N)=O)[C@@H](O)[C@H](Oc2ccc3c(O)c(NC(=O)c4ccc(O)c(CC=C(C)C)c4)c(=O)oc3c2C)OC1(C)C` [novobiocin], the “interplay of EmrE with tripartite efflux pumps on resistance” value ([3]; EKO-35-Pore) was “Interplay was not observed”, the MIC ([3]; strain EKO-35) was 0.391 µg/mL and the “Fold Change from EKO-35” value ([3]; strain EKO-35 pEmrE) was 1. For the same molecule, the MIC ([3]; strain EKO-35 pEmrE) was 0.391 µg/mL, the “Fold Change from EKO-35” value ([3]; strain acrB pEmrE) was 256 and the MIC ([3]; strain acrB pEmrE) was 100 µg/mL. For the same molecule, the “Fold Change from EKO-35” value ([3]; strain acrB) was 256, the MIC ([3]; strain acrB) was 100 µg/mL and the “Fold Change from EKO-35” value ([3]; strain acrD pEmrE) was 16. For the same molecule, the “Fold Change from EKO-35” value ([3]; strain acrD) was 64, the MIC ([3]; strain acrD) was 25 µg/mL and the “Fold Change from EKO-35” value ([3]; strain acrEF pEmrE) was 32. For the same molecule, the “Fold Change from EKO-35” value ([3]; strain acrEF) was 32, the “Fold Change from EKO-35” value ([3]; strain mdtEF pEmrE) was 4 and the MIC ([3]; strain mdtEF pEmrE) was 1.56 µg/mL. The “Fold Change from EKO-35” value ([3]; strain mdtEF) was 8, the MIC ([3]; strain mdtEF) was 3.13 µg/mL and the “interplay of EmrE with tripartite efflux pumps on resistance” value [4] was “Interplay was not observed; also recorded: did not observe synergy”. The “extrusion by EmrE” value ([4]; negative controls) was “not extruded by EmrE”, the MIC ([4]; strain EKO-35) was 0.781 µg/mL (≈ 1.27 µM) and the “Fold Change from EKO-35” value ([4]; strain EKO-35 pEmrE) was 1. For the same molecule, the MIC ([4]; strain EKO-35 pEmrE) was 0.781 µg/mL (≈ 1.27 µM), the “Fold Change from EKO-35” value ([4]; strain acrB pEmrE) was 512 and the MIC ([4]; strain acrB pEmrE) was 400 µg/mL (≈ 653 µM). For the same molecule, the “Fold Change from EKO-35” value ([4]; strain acrB) was 512, the MIC ([4]; strain acrB) was 400 µg/mL (≈ 653 µM) and the “Fold Change from EKO-35” value ([4]; strain acrD pEmrE) was 64. The MIC ([4]; strain acrD pEmrE) was 50 µg/mL (≈ 81.6 µM), the “Fold Change from EKO-35” value ([4]; strain acrD) was 128 and the MIC ([4]; strain acrD) was 100 µg/mL (≈ 163 µM). For the same molecule, the “Fold Change from EKO-35” value ([4]; strain acrEF pEmrE) was 64, the MIC ([4]; strain acrEF pEmrE) was 50 µg/mL (≈ 81.6 µM) and the “Fold Change from EKO-35” value ([4]; strain acrEF) was 128. The MIC ([4]; strain acrEF) was 100 µg/mL (≈ 163 µM), the “Fold Change from EKO-35” value ([4]; strain mdtEF pEmrE) was 8 and the MIC ([4]; strain mdtEF pEmrE) was 6.25 µg/mL (≈ 10.2 µM). The “Fold Change from EKO-35” value ([4]; strain mdtEF) was 16, the MIC ([4]; strain mdtEF) was 12.5 µg/mL (≈ 20.4 µM) and the Effect [1, 6] was “Additive”. For the same molecule, the FICI [1, 6] was 0.563, the “MICb Alone” value [1, 7] was 16 µg/mL and the “MICb Combined” value [1, 8] was 1 µg/mL. The “interaction of PAβN in combination with the labelled antibiotic (FICI)” value [1] was “synergy was lost”.
